Earlier results in patent US7317127B2, “Process for the optical resolution and recycling of tomoxetine” (Teva Pharmaceutical Fine Chemicals S.r.l, priority 2004, dated 2008).

Settings: as disclosed in U.S. Pat. No. 4,018,895, EP 0 052 492, EP 0 721 777

## CNCC[C@@H](Oc1ccccc1C)c1ccccc1 [Atomoxetine, (R)(−)-N-methyl-3-(2-methylphenoxy)-3-phenylpropylamine]
Versus (S)-(+)-tomoxetine
  effectiveness relative to the (+)-enantiomer: about nine times more effective than the (+)-enantiomer
Versus racemic tomoxetine
  effectiveness relative to the racemic mixture: about twice as effective as the racemic mixture
